The target of one assay is T1, CCK-B receptor (Mus musculus, UniProt P56481).
T1 construct: from tissue; host or cells: cerebral cortex of male CFLP mice (membranes)
T1 sequence (P56481 1-453): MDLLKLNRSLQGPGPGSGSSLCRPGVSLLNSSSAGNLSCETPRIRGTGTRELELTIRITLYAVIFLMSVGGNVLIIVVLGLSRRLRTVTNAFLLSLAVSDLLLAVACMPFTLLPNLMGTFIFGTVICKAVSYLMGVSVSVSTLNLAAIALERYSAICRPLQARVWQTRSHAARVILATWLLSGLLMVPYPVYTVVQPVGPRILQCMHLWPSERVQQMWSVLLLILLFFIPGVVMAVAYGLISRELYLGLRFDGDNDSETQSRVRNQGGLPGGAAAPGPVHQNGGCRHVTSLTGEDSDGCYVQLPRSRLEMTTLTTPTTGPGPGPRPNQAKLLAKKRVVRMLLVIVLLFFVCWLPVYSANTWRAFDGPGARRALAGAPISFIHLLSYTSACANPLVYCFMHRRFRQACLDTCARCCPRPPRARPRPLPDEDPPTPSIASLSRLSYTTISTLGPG
The assay can be described thus: CCK-B receptor binding (displacement of tritiated-pentagastrin from mouse cerebral cortical membranes). The conditions noted are these: for pKi: 2 nM tritiated-pentagastrin, Hepes buffer pH 7.2, 23° C., read-out: CCK-B (Ki). The procedure: (§1) The biological activity of compounds of the present invention may be evaluated by employing an initial screening test which rapidly and accurately measures the binding of the tested compound to known CCK receptor sites. […] (See Hays, et al., Neuropeptides 1:53-62, 1980; and Satuer, et al., Science 208:1155-1156, 1980).
In this screening test, the cerebral cortices taken from male CFLP mice weighing between 30 to 40 g were dissected on ice, weighed, and homogenized in 10 volumes of 50 mM Tris-HCl buffer (pH 7.4 at 0°-4° C.). The resulting suspension was centrifuged, the supernate was discarded, and the pellet was washed by resuspension in Tris-HCl buffer followed by recentrifugation. The final pellet was resuspended in 20 volumes of […] buffer (pH 7.2 at 23° C.) containing 130 mM NaCl, […], […].
In saturation studies, cerebral cortical membranes were incubated at 23° C. for 120 minutes in a final volume of 500 μL of Hepes incubation buffer (pH 7.2) together with 0.2-20 nM tritiated-pentagastrin (Amersham International, England).
In the displacement experiments, membranes were incubated with a single concentration (2 nM) of ligand, together with increasing concentrations (10^-11 to 10^-6 M) of competitive test compound. In each case, the nonspecific binding was defined as that persisting in the presence of the unlabeled octapeptide CCK26-33 (10^-6 M)
Following incubation, radioactivity bound to membranes was separated from that free in solution by rapid filtration through Whatman GF/B filters and washed three times with 4 mL of ice cold Tris-HCl buffer. Filters from samples incubated with tritiated-pentagastrin were placed in polyethylene vials with 4 mL of scintillation cocktail, and the radioactivity was estimated by liquid scintillation spectrometry (efficiency 47-52%). […]
Saturation curves for specific tritiated-pentagastrin binding to mouse cortical membranes were analyzed by the methods of Scatchard (Ann. New York Acad. Sci. 51:660-672, 1949), and Hill (J. Physiol. 40:IV-VIII, 1910), to provide estimates for the maximum number of binding sites (Bmax) and the equilibrium dissociation constant (Ka)
In displacement experiments, inhibition curves were analyzed by either logit-log plots or the iterative curve fitting computer program ALLFIT (DeLean, Munson, and Redbard, 1978) to provide estimates of the IC50 and nH (apparent Hill coefficient values). […]
The inhibition constant (Ki) of the test compound was then calculated according to the Cheng-Prusoff equation: [formula] where [L] is the concentration of radiolabel and Ka is the equilibrium dissociation constant. […]

In the next assay the test system is CCK-A receptors. To be noted: words; cited from earlier work.
In a further assay the test system is CCK-B receptors. To be noted: words; cited from earlier work.
For another assay, the target named is CCK-A receptor. Briefly: CCK-A receptor binding. The conditions noted are these: for pKi: read-out: CCK-A (Ki). How it is done: as §1
In displacement experiments, inhibition curves were analyzed by either logit-log plots or the iterative curve fitting computer program ALLFIT (DeLean, Munson, and Redbard, 1978) to provide estimates of the IC50 and nH (apparent Hill coefficient values). (IC50 values were defined as the concentration of test compound required to produce 50% inhibition of specific binding).
The inhibition constant (Ki) of the test compound was then calculated according to the Cheng-Prusoff equation: [formula] where [L] is the concentration of radiolabel and Ka is the equilibrium dissociation constant.
The Ki values for several representative compounds of the present invention are present in Table 1.
The following table represents the CCK-A and CCK-B receptor binding affinities of the compounds. [drawing 34]
The testing procedures are disclosed in Hays, et al., Neuropeptides 1:53-62, 1980; and Satuer, et al., Science 208:1155-1156, 1980.

pKi: −log10 of the molar value. Read-outs that look alike come from different tables or passages of the source. Bounds are passed on as bounds.

Broadly, the pKi is the Ki on a negative log10 scale, so that one unit is a factor of ten. `CC(C)Oc1cccc(-n2c(CNC(=O)OCc3ccccc3)nc3ccccc3c2=O)c1`: the pKi at CCK-B receptor was 6.21.

Turning to CCK-8S: sulfated octapeptide (CCK-8S), the “affinity for CCK-A receptors” value in the assay with CCK-A receptors is on record as “high affinity”. Besides, the “affinity for CCK-B receptors” value in the assay with CCK-B receptors is “high affinity”.

A word on the Ki: it is the dissociation constant of the complex between target and ligand, obtained from inhibition or displacement. In the case of `Cc1ccc(S(=O)(=O)NC(=O)NCc2nc3ccccc3c(=O)n2-c2cccc(OC(C)C)c2)cc1` [1 NHSO2 4-CH3 Ph, Benzenesulfonamide, N-[[[[3,4-dihydro-[3-(1-methylethoxy)phenyl]-4-oxo-2-quinazolinyl]methyl]amino]carboxy]-4-methyl], the inhibitory constant (Ki) at CCK-A receptor (bound printed in μM in the Ki, nM column, read-out: CCK-A Ki (cell in μM)) is more than 1 µM; on CCK-B receptor (bound printed in μM in the Ki, nM column, read-out: CCK-B Ki (cell in μM)) it was more than 1 µM.

For “gastrin: gastrin peptide sharing a common carboxy terminal pentapeptide sequence with CCK”, the “affinity for CCK-A receptors” value with CCK-A receptors is given as “lower affinity”. In addition, in the assay with CCK-B receptors, the “affinity for CCK-B receptors” value is reported as “high affinity”.

Consider CCK-4, for which the “affinity for CCK-A receptors” value with CCK-A receptors is listed as “lower affinity”. For the same molecule, the “affinity for CCK-B receptors” value in the assay with CCK-B receptors is “high affinity”.

As for `CC(C)Oc1cccc(-n2c(CNC(=O)c3cnc4ccccc4n3)nc3ccccc3c2=O)c1` [1 -- 2-Quinoxolinyl, 2-Quinoxalinecarboxamide, N-[[1,2-dihydro-3-[3-(1-methylethoxy)phenyl]-4-oxo-2-quinazolinyl]methyl]], in the assay on CCK-A receptor (@ 10 μM), the “CCK-A, % @ 10 μM (in the Ki column)” value worked out at 29%. At CCK-B receptor, the pKi was 6.07.

For `CC(C)Oc1cccc(-n2c(CNC(=O)Nc3ccc(Br)cc3)nc3ccccc3c2=O)c1` [1 NH 4-BrPh, Urea, N-(4-bromophenyl)-N-[[3,4-dihydro-3-[3-(1-methylethoxy)phenyl]-4-2-quinazolinyl]methyl]], the pKi on CCK-A receptor was 6.01.

In the case of `CC(C)Oc1cccc(-n2c(CNC(=O)Nc3ccc([N+](=O)[O-])cc3)nc3ccccc3c2=O)c1` [1 NH 4-NO2 Ph], the negative-log Ki (pKi) on CCK-A receptor was 6.41.

Regarding `Cc1cccc(NC(=O)NCc2nc3ccccc3c(=O)n2-c2cccc(OC(C)C)c2)c1` [1 NH 3-MePh, Urea, N-[[3,4-dihydro-3-[3-(1-methylethoxy)phenyl]-4-2-quinazolinyl]methyl]-N-(3-methylphenyl)], the pKi on CCK-A receptor is 5.79.

As to `CC(C)Oc1cccc(-n2c(CNC(=O)Nc3ccc(C(F)(F)F)cc3)nc3ccccc3c2=O)c1` [1 NH 4-CF3 Ph], the pKi at CCK-A receptor was 6.17.

Regarding `CC(C)Oc1cccc(-n2c(CCNC(=O)Nc3ccc(Br)cc3)nc3ccccc3c2=O)c1` [2 NH 4-BrPh, Urea, N-(4-bromophenyl)-N'-[2-[3,4-dihydro-3-[3-(1-methylethoxy)phenyl]-4-oxo-2-quinazolinyl]ethyl]], at CCK-A receptor, the pKi is 5.79.

`CC(C)Oc1cccc(-n2c(CNC(=O)NCc3ccc(Br)cc3)nc3ccccc3c2=O)c1` [1 NH 4-BrPhCH2]: the pKi at CCK-A receptor was 5.51.

Regarding “CCK-8d: corresponding desulfated fragment CCK-8d”, the “affinity for CCK-A receptors” value with CCK-A receptors is given as “lower affinity”.

Turning to `CCOC(=O)c1cccc(NC(=O)NCc2nc3ccccc3c(=O)n2-c2cccc(OC(C)C)c2)c1` [1 NH 3-COOEtPh, Benzoic Acid, 3-[[[3,4-dihydro-3-[3-(1-methylethoxy)phenyl]-4-oxo-2-quinazolinyl]methyl]amino]carbonylamino-, ethyl ester], on CCK-A receptor, the pKi was 5.83.

For `CC(C)Oc1cccc(-n2c(CCNC(=O)OCc3ccccc3)nc3ccccc3c2=O)c1` [2 O PhCH2], the results for the pKi at CCK-A receptor and on CCK-B receptor were 5.56 and 6.11, respectively.

The record behind these values is patent US5756502A, “Quinazolinone derivatives as cholyecystokinin (CCK) ligands” (Warner-Lambert Company, priority 1995, dated 1998).
